For 24 compounds, IC50 results are on record in patent US20120015907A1, “Furopyridine compounds and uses thereof” (NOVARTIS AG, priority 2010, published 2012).

This test addresses T1, HCV polymerase (Hepatitis C virus genotype 1b, UniProt Q9WMX2).
T1 construct: (His)6 (C)
Put plainly: biochemical. The note with it: polymerase assay of Biological Example 1; read-out: NS5B polymerase IC50. An excerpt:
A number of assays have been published to assess these activities. A general method that assesses the gross increase of HCV virus in culture was disclosed in U.S. Pat. No. 5,738,985 to Miles et al. In vitro assays have been reported in Ferrari et al. Jnl. of Vir., 73:1649-1654, 1999; Ishii et al., Hepatology, 29:1227-1235, 1999; Lohmann et al., Jnl of Bio. Chem., 274:10807-10815, 1999; and Yamashita et al., Jnl. of Bio. Chem., 273:15479-15486, 1998.
WO 97/12033, filed on Sep. 27, 1996, by Emory University, listing C. Hagedorn and A. Reinoldus as inventors, which claims priority to U.S. Provisional Patent Application Ser. No. 60/004,383, filed on September 1995, described an HCV polymerase assay that can be used to evaluate the activity of the of the compounds described herein. Another HCV polymerase assay has been reported by Bartholomeusz, et al., Hepatitis C Virus (HCV) RNA polymerase assay using cloned HCV non-structural proteins; Antiviral Therapy 1996:1(Supp 4) 18-24.
The IC50 is the point on the concentration scale where inhibition reaches its midpoint. As to “6-{[3-(1,1-Dioxo-tetrahydro-1lambdathiophen-2-yl)-propyl]-methanesulfonyl-amino}-5-ethyl-2-(4-fluoro-phenyl)-furo[2,3-b]pyridine-3-carboxylic acid methylamide [Example 22.99]”, the IC50 was 15 nM.
As to `CNC(=O)c1c(-c2ccc(F)cc2)oc2nc3c(cc12)[C@H](C)C[C@H](O)CN3S(C)(=O)=O` (single isomer, unassigned) [Example 33], the 50% inhibitory concentration (IC50) is 170 nM.
The value for `CCc1cc2c(C(=O)NC)c(-c3ccc(F)cc3)oc2nc1N(CCCNS(=O)(=O)c1ccccc1)S(C)(=O)=O` [23.6] was 93 nM; that for `CNC(=O)c1c(-c2ccc(F)cc2)oc2nc(N(C)S(C)(=O)=O)c(I)cc12` [Example 2, 2-(4-Fluoro-phenyl)-5-iodo-6-(methanesulfonyl-methyl-amino)-furo[2,3-b]pyridine-3-carboxylic acid methylamide] was 163 nM; that for `CNC(=O)c1c(-c2ccccn2)oc2nc(N(C)S(C)(=O)=O)c(I)cc12` [Example 2.3, 5-iodo-N-methyl-6-(N-methylmethylsulfonamido)-2-(pyridin-2-yl)furo[2,3-b]pyridine-3-carboxamide] was 408 nM.
As for `C=C(C)c1cc2c(C(=O)NC)c(-c3ccc(F)cc3)oc2nc1N(C)S(C)(=O)=O` [Example 2.4, 2-(4-fluorophenyl)-N-methyl-6-(N-methylmethylsulfonamido)-5-(prop-1-en-2-yl)furo[2,3-b]pyridine-3-carboxamide], the figure is 132 nM.
As for `C=C(c1cc2c(C(=O)NC)c(-c3ccc(F)cc3)oc2nc1N(C)S(C)(=O)=O)C(F)(F)F` [Example 2.5, 2-(4-fluorophenyl)-N-methyl-6-(N-methylmethylsulfonamido)-5-(3,3,3-trifluoroprop-1-en-2-yl)furo[2,3-b]pyridine-3-carboxamide], the figure is 662 nM; as for `CN(c1nc2oc(-c3ccc(F)cc3)c(C(N)=O)c2cc1C1CC1)S(C)(=O)=O` [Example 2.6], 297 nM; as for `CCNC(=O)c1c(-c2ccc(F)cc2)oc2nc(N(C)S(C)(=O)=O)c(C3CC3)cc12` [Example 2.7, 5-cyclopropyl-N-ethyl-2-(4-fluorophenyl)-6-(N-methylmethylsulfonamido)furo[2,3-b]pyridine-3-carboxamide], 44 nM.
For `CNC(=O)c1c(-c2ccccc2)oc2nc(N(C)S(C)(=O)=O)c(C3CC3)cc12` [Example 2.8, 5-cyclopropyl-N-methyl-6-(N-methylmethylsulfonamido)-2-phenylfuro[2,3-b]pyridine-3-carboxamide], the IC50 worked out at 30 nM.
The value for `CNC(=O)c1c(-c2ccc(C(F)(F)F)cc2)oc2nc(N(C)S(C)(=O)=O)c(I)cc12` [Example 2.91, 5-iodo-N-methyl-6-(N-methylmethylsulfonamide)-2-(4-(trifluoromethyl)phenyl)furo[2,3-b]pyridine-3-carboxamide] was 802 nM; that for `CNC(=O)c1c(-c2ccc(F)cc2)oc2nc(N(C)S(C)(=O)=O)c(C)cc12` [Example 2.92, 2-(4-fluorophenyl)-N,5-dimethyl-6-(N-methylmethylsulfonamido)furo[2,3-b]pyridine-3-carboxamide] was 256 nM; that for `CNC(=O)c1c(-c2ccc(C)cc2C)oc2nc(N(C)S(C)(=O)=O)c(C3CC3)cc12` [Example 2.99, 5-cyclopropyl-2-(2,4-dimethylphenyl)-N-methyl-6-(N-methylmethylsulfonamido)furo[2,3-b]pyridine-3-carboxamide] was 71 nM.
The value for `CCOC(=O)CCCCc1cc2c(C(=O)NC)c(-c3ccc(F)cc3)oc2nc1N(C)S(C)(=O)=O` [Example 3, Ethyl 5-(2-(4-fluorophenyl)-3-(methylcarbamoyl)-6-(N-methylmethylsulfonamido)furo[2,3-b]pyridin-5-yl)pentanoate] was 34 nM.
The value for `CNC(=O)c1c(-c2ccc(F)cc2)oc2nc(N(C)S(C)(=O)=O)c(CCCC(=O)N3CCC[C@H]3C(=O)OC)cc12` [Example 4.1, (S)-methyl 1-(4-(2-(4-fluorophenyl)-3-(methylcarbamoyl)-6-(N-methylmethylsulfonamido)furo[2,3-b]pyridin-5-yl)butanoyl)pyrrolidine-2-carboxylate] was 112 nM; that for `C=CCc1cc2c(C(=O)NC)c(-c3ccc(F)cc3)oc2nc1N(C)S(C)(=O)=O` [Example 4.2, 5-allyl-2-(4-fluorophenyl)-N-methyl-6-(N-methylmethylsulfonamido)furo[2,3-b]pyridine-3-carboxamide] was 128 nM.
As for `CNC(=O)c1c(-c2ccc(F)cc2)oc2nc(N(C)S(C)(=O)=O)c(CCCC(N)=O)cc12` [Example 4.3, 5-(4-amino-4-oxobutyl)-2-(4-fluorophenyl)-N-methyl-6-(N-methylmethylsulfonamido)furo[2,3-b]pyridine-3-carboxamide], the half-inhibitory concentration (IC50) was 132 nM.
Turning to `CNC(=O)c1c(-c2ccc(F)cc2)oc2nc(N(C)S(C)(=O)=O)c(CCCC(=O)N3CCC[C@H]3C(N)=O)cc12` [Example 4.4, (S)-5-(4-(2-carbamoylpyrrolidin-1-yl)-4-oxobutyl)-2-(4-fluorophenyl)-N-methyl-6-(N-methylmethylsulfonamido)furo[2,3-b]pyridine-3-carboxamide], the 50% inhibitory concentration (IC50) came out at 200 nM.
The value for `CNC(=O)c1c(-c2ccc(F)cc2)oc2nc(N(C)S(C)(=O)=O)c(CCCCC(=O)N3CCC[C@H]3C(=O)OC)cc12` [Example 4.6, (S)-methyl 1-(5-(2-(4-fluorophenyl)-3-(methylcarbamoyl)-6-(N-methylmethylsulfonamido)furo[2,3-b]pyridin-5-yl)pentanoyl)pyrrolidine-2-carboxylate] was 113 nM.
The value for `CNC(=O)c1c(-c2ccc(F)cc2)oc2nc(N(C)S(C)(=O)=O)c(CCCCC(=O)N3CCC[C@H]3C(N)=O)cc12` [Example 4.8, (S)-5-(5-(2-carbamoylpyrrolidin-1-yl)-5-oxopentyl)-2-(4-fluorophenyl)-N-methyl-6-(N-methylmethylsulfonamido)furo[2,3-b]pyridine-3-carboxamide] was 51 nM; that for `CNC(=O)c1c(-c2ccc(F)cc2)oc2nc(N(C)S(C)(=O)=O)c(CCCC(O)CO)cc12` (stereo not drawn) [Example 4.92, 5-(4,5-dihydroxypentyl)-2-(4-fluorophenyl)-N-methyl-6-(N-methylmethylsulfonamido)furo[2,3-b]pyridine-3-carboxamide] was 223 nM; that for `CNC(=O)c1c(-c2ccc(F)cc2)oc2nc(N(C)S(C)(=O)=O)c(CCCC(C)O)cc12` (stereo not drawn) [Example 4.93, 2-(4-fluorophenyl)-5-(4-hydroxypentyl)-N-methyl-6-(N-methylmethylsulfonamido)furo[2,3-b]pyridine-3-carboxamide] was 216 nM.
As for `CNC(=O)c1c(-c2ccc(F)cc2)oc2nc(N(C)S(C)(=O)=O)c(CCCS(C)(=O)=O)cc12` [Example 4.94, 2-(4-fluorophenyl)-N-methyl-6-(N-methylmethylsulfonamido)-5-(3-(methylsulfonyl)propyl)furo[2,3-b]pyridine-3-carboxamide], the figure is 208 nM.
With `CNC(=O)c1c(-c2ccc(F)cc2)oc2nc(N(C)S(C)(=O)=O)c(CCCCC(N)=O)cc12` [Example 4.95, 5-(5-amino-5-oxopentyl)-2-(4-fluorophenyl)-N-methyl-6-(N-methylmethylsulfonamido)furo[2,3-b]pyridine-3-carboxamide], the IC50 stood at 16 nM.
